Active and inactive are the calls of the source. The rule behind the calls is not given here.

The record followed here is ChEMBL document CHEMBL5376008, “Total Synthesis, Revised Structure, and Biological Evaluation of Elgonene B and Analogues” (J Nat Prod, 2024).

For one data set, the system named is KB 3-1. Briefly: Cytotoxicity against human KB-3-1cells incubated for 24 hrs by MTT assay. Format: toxicity, cell-based. The following applies: kb 3-1, 24 h. Background: Formazan colour is commonly taken as a measure of viable cells.
In the next data set the test system is HeLa. Briefly: Cytotoxicity against human HeLa cells incubated for 24 hrs by MTT assay. It is filed as toxicity, cell-based.
The test system of another data set is Escherichia coli. Briefly: Antibacterial activity against Escherichia coli DH5a incubated for 18 hrs by spectrophotometric based microdilution assay. It is filed as functional, organism-based. (Dilution methods test growth across graded concentrations, often in twofold steps.)

As for `C=C([C@H]1CC=C(C)CC1)[C@@H](O)[C@H]1C[C@@H](C)C(=O)O1`, the Activity result in the data set with KB 3-1 and in the data set on HeLa was “Non-Toxic” throughout. Further, in the data set on Escherichia coli, the outcome was inactive.

With `C=C([C@H]1CC=C(C)CC1)[C@H](O)[C@H]1C[C@@H](C)C(=O)O1`, the Activity result in the data set with KB 3-1 and in the data set with HeLa was “Non-Toxic” each time.

As for `C=C([C@@H]1CC=C(C)CC1)[C@H](O)[C@H]1C[C@@H](C)C(=O)O1`, the Activity result in the data set with KB 3-1 and in the data set on HeLa was “Non-Toxic” each time. Besides, the result in the data set with Escherichia coli was inactive.

Take `C=C([C@@H]1CC=C(C)CC1)[C@@H](O)[C@H]1C[C@@H](C)C(=O)O1`: the Activity entry with KB 3-1 and in the data set on HeLa was “Non-Toxic” throughout.
